Entries after “also recorded” stand apart in the source; their conditions may differ.
Experiments:
GST-KRS = biological target: T1, GST-KRS (Homo sapiens, UniProt Q15046); experiment: Surface plasmon resonance assay (BIAcore3000); conditions: GST-KRS immobilized on CM5 chip, binding to GST subtracted, 25° C., 1:1 binding
T1 construct: made in house; host or cells: E. coli Rosetta (DE3)
Experimental: (§1) As a control, an OD level of cells treated with DMSO was measured. FIG. 32 is a photograph showing cell growth in wells containing yeast cells having indicated interaction pairs in the presence or absence of CAND-KL1. In FIG. 33, in 293 cells, through co-immunoprecipitation, the KL1-dose-dependent effect on the interaction between KRS and 67LR was tested. The cells were treated with KL1 for 3 hours, 67LR was immunoprecipitated, and co-precipitation of KRS was determined by western blotting. In FIG. 34, in the presence of KL1 in indicated levels, a laminin receptor labeled with radioisotope was mixed with GST-KRS (1 μg). GST-KRS was precipitated with glutathione-Sepharose beads, and co-precipitated laminin receptor was detected with autoradiography. In FIG. 35, in A549 cells, the effect of KL1 on the intracellular level of 67LR and 37LRP was tested with western blotting. […] GST-KRS was immobilized on a CM5 Sensor Chip, and the binding was measured by a resonance unit (RU) at indicated concentrations (indicated by different colors). […]
The interaction between KRS and the compound (Formula 15) was tested by BIAcore3000 (GE healthcare). […] Then, the binding was measured by a change in a resonance unit (RU). The specific binding activity of CAND-KL1 to GST-KRS was measured by subtracting binding to GST in sensorgram. […]

A549 cells = experiment: Western blotting of 67LR and 37LRP levels in A549 cells; type: cell-based, human; conditions: KL1 in different amounts
Experimental: as §1
From among the compounds, the inventors also examined whether the compound represented by Formula 15 (indicated by CAND-KL1, and KL1) can inhibit the intracellular interaction between KRS and 67LR. […] Then, 67LR was immunoprecipitated with its antibody, and co-immunoprecipitation of KRS was determined. […]

[1] = system: Mouse mammary carcinoma 4T-1 cells; experiment: In vivo cancer metastasis experiment; parameters: species or system Balb/c mice; conditions: mice, 30 mg/kg once a day for 3 weeks
Experimental: On MMP2 activity (FIG. 37) and cell migration (FIGS. 38 and 39), KL1-dose-dependent effect was measured. For the test on the cell migration, the cells were treated with KL1 for 8 hours. In FIG. 40, in order to see the effect of KL1 on protein synthesis of cells, A549 cells were treated with KL1 at indicated concentrations, and starved in methionine-free medium. Then, [^35S] methionine was added thereto for 2 hours. Then, the cells were incubated in complete medium for 4 hours, and the level of added methionine was measured by a scintillation counter. In FIG. 41, KL1-dose-dependent cytotoxicity was measured by using A549 cells. In FIG. 42, the effect of KL1 on cancer metastasis was measured according to the method as described above. In each group, 6 mice were included, and KL1 was abdominally injected for 3 weeks, in a dose of 30 mg/kg once a day. Then, the mice were sacrificed. The metastasized tumor nodules over 1 mm in diameter were counted, and their average was calculated (left). […]
Mouse mammary carcinoma 4T-1 cells were transfected with si-KRS, si-DRS or si-control, and incubated for 24 hours. […] The growth of a tumor was monitored by measuring a tumor size three times per week. The whole body weights were also simultaneously measured. […] The number and size of metastatic tumor nodules in lungs were measured, and tumor nodules of larger than 1 mm in diameter were separately recorded. […]

T1 sequence (Q15046 whole entry): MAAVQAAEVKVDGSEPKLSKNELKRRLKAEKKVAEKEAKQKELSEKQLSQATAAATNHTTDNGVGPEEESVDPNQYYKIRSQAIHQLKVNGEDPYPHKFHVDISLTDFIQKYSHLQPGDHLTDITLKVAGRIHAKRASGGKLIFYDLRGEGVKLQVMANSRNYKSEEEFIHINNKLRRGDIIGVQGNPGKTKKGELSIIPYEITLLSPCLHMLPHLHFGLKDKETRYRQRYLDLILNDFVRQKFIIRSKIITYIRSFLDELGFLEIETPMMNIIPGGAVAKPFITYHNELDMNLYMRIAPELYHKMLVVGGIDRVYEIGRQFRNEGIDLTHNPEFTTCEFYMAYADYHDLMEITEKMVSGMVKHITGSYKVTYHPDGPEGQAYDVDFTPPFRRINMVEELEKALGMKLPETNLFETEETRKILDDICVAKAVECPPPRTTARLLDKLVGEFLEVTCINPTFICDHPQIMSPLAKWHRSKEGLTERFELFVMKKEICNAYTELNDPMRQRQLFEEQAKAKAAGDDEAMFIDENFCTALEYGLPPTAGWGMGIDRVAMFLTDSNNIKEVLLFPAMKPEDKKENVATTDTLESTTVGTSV

## CCC(C(=O)O)n1/c(=N/C(=O)c2ccc(C)cc2)sc2ccccc21 (centres unmarked) [Compound of formula 15, 2-[2-(4-Methyl-benzoylimino)-benzothiazol-3-yl]-butyric acid]
GST-KRS
  Kd: ~2600 nM
A549 cells
  cytoplasmic 37LRP level: no effect
  intracellular level of 67LR: decreased by the amount of added KL1
[1]; abdominally injected, lung nodules over 1 mm in diameter
  number of metastasized nodules: significantly reduced
[1]; KL1 treated vs non-treated group, listed as KL1, 30 mg/kg
  primary tumor growth (weight and size): no significant difference in weight and size; also recorded: did not affect
